Experiments:
[1] = biological target: T1, Nurrl-RXR heterodimer complex (Homo sapiens, UniProt P19793); assay: Transient transfection of full-length Nurrl and RXR on NBRE x3 TK-LUC; type: cell-based, mouse Nurrl, human RXRα
T1 construct: transient transfection analysis of full-length Nurrl and/or RXR; expressed in transfected cells; host or cells: CV-1
Description: (§1) One day prior to transfection, cells were plated to 50-80% confluence using phenol-red free DMEM-FBS. Cells were transfected by lipofection using N-{2-(2,3)-dioleoyloxy)propyl-N,N,N-trimethyl ammonium methyl sulfate} according to the manufacturer's instructions (DOTAP, Boehringer Mannheim).
Thus, CV-1 cells were tranfected with NBRE×3 TK-LUC (300 ng/10^5 cells) , CMX-βgal (500 ng/10^5 cells), alone or with CMX-Nurrl (100 ng/10^5 cells) and CMX-hRXRα (100 ng/10^5 cells) as indicated in FIG. 7B. Following transfection, cells were treated with or without 100 nM LG69. Normalized luciferase activity was determined and plotted as reporter activity.
(§2) Using sub-optimal amounts of RXR-expression vector, the CRBPII reporter was compared with a 3-copy NBRE reporter as follows. Cells were transfected as described with respect to FIG. 7B, but with a 5-fold lower amount of CMX-hRXRα (20 ng/10^5 cells). CRBPII TK-LUC (300 ng/10^5 cells) was used where indicated.

[2] = biological target: T2, RXR (Homo sapiens, UniProt P19793); assay: Transient transfection of RXR on CRBPII TK-LUC reporter; type: cell-based; conditions: limiting RXR (20 ng/10^5 cells); LG69
T2 construct: transient transfection analysis of full-length Nurrl and/or RXR; expressed in transfected cells; host or cells: CV-1
T2 sequence (P19793 1-462): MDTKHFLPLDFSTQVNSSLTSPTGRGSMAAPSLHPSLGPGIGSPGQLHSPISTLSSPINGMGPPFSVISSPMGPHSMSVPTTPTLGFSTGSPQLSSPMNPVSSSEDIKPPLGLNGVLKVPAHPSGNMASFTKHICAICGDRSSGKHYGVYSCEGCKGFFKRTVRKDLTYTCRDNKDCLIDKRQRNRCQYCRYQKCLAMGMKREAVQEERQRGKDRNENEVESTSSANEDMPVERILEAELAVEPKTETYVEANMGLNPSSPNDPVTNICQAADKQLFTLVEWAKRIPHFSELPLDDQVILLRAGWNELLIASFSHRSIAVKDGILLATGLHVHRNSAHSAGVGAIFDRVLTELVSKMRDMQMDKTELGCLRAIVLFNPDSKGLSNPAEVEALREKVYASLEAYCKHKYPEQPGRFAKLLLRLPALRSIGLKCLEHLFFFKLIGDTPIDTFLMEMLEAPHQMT
Description: CV-1 cells were grown in Dulbecco's Modified Eagle's medium supplemented with 10% resin-charcoal stripped (Samuels et al., Endocrinology 105:80-85 (1979)) fetal bovine serum, 50 U/ml penicillin G and 50 μg/ml streptomycin sulfate (DMEM-FBS) at 37° C. in 5% CO2. One day prior to transfection, cells were plated to 50-80% confluence using phenol-red free DMEM-FBS. Cells were transfected by lipofection using N-{2-(2,3)-dioleoyloxy)propyl-N,N,N-trimethyl ammonium methyl sulfate} according to the manufacturer's instructions (DOTAP, Boehringer Mannheim). […]. All points were performed in triplicate in each experiment and varied by less than 10%. Each experiment was repeated three or more times with similar results.
as §2

[3] = biological target: T3, T3R-RXR heterodimers (Homo sapiens, UniProt P10828+P19793); assay: Transient transfection analysis of T3R-RXR heterodimers (TK-LUC reporter, CV-1 cells); type: cell-based
T3 construct: transient transfection analysis of full-length Nurrl and/or RXR; expressed in transfected cells; host or cells: CV-1
T3 sequence (P10828 1-461): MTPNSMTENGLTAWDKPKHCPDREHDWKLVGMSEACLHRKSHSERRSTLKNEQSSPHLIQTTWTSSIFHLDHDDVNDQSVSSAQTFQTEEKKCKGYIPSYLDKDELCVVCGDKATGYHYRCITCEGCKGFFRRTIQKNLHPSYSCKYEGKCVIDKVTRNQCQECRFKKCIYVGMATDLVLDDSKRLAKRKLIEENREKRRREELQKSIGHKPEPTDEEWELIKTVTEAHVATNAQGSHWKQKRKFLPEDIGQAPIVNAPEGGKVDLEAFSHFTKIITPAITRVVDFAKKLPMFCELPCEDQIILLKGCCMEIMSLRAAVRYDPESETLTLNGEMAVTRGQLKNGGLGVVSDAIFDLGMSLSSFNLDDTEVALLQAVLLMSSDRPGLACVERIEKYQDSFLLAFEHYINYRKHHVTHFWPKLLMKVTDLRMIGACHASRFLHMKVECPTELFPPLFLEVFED
T3 sequence (P19793 1-462): T2 sequence (P19793 1-462)
Description: as §1
Since T3R and RAR function as heterodimers with RXR, RXR responsiveness was examined in the context of RXR-T3R and RXR-RAR heterodimers. Attention is directed to FIG. 2, wherein transient transfection analysis of T^3R-RXR and RAR-RXR heterodimers is described. Reporter constructs employed contain the HRE indicated in the figure, cloned upstream of the TK-LUC reporter. In the left panel of the figure, CV-1 cells were transfected with the following plasmids: HRE×2 - TK-LUC (300 ng/10^5 cells), CMX-hT3Rβ (20 ng/10^5 cells), CMX-hRXRα (20 ng/10^5 cells) and the internal control CMX-βgal (500 ng/10^5 cells) .

[4] = biological target: T4, GST-hRXRα (Homo sapiens, UniProt P19793); assay: Ligand binding assay with GST-RXR (glutathione-sepharose); conditions: 50 nM [3H] LG69; 2 μM unlabeled ligand
T4 construct: made in house
T4 sequence (P19793 1-462): T2 sequence (P19793 1-462)

T1 sequence (Q06219 whole entry partner, one chain of several): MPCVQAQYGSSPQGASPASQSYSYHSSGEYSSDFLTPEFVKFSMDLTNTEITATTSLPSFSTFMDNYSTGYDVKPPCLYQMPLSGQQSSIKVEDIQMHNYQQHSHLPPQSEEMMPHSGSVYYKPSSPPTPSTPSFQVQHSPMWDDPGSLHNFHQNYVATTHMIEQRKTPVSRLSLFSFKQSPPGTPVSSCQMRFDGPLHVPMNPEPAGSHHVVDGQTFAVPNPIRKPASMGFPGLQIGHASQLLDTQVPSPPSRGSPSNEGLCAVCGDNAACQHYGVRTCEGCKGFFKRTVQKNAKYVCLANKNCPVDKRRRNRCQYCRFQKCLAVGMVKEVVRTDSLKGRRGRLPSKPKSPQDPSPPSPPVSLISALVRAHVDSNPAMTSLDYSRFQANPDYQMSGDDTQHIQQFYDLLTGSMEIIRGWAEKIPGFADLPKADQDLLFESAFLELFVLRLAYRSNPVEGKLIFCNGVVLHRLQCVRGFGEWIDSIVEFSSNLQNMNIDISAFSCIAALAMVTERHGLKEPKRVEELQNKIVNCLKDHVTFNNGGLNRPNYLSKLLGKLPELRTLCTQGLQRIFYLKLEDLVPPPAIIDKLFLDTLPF

## CC=C(c1ccc(C(=O)O)cc1)c1cc2c(cc1C)C(C)(C)CCC2(C)C [LG69, 4-{1-(3,5,5,8,8-pentamethyl-5,6,7,8-tetrahydro-2-napthalenyl)-1-propenyl}benzoic acid]
[1]; Nurrl and RXR co-expressed, NBRE reporter
  responsiveness of the Nurrl-RXR complex: strongly responsive
[1]; limiting RXR (20 ng/10^5 cells)
  response of Nurrl-RXR on NBRE reporter: potent response
[2]
  activation of the CRBPII reporter: minimal activation
[3]; 100 nM T3+100 nM LG69 versus T3 alone
  effect of LG69 added to T3 on the response to T3: somewhat reduced
[3]; CV-1 cells transfected with T3Rβ and RXRα, 100 nM T3 or 100 nM LG69
  responsiveness of transfected cells to ligand (luciferase fold-activation): not responsive
[4]
  competition of [3H] LG69 binding to GST-RXR by unlabeled ligand: specifically completed

— patent US20030083469A1, “Allosteric control of nuclear hormone receptors” (The Salk Institute for Biological Studies, priority 1995, published 2003)
